{"source": "patent US20200222377A1", "about": "“Methods Of Enhancing And/Or Stabilizing Cardiac Function In Patients With Fabry Disease” (Amicus Therapeutics, Inc., priority 2017, published 2020)", "key": {"[1]": {"system": "ERT-experienced Fabry patients", "test": "Phase 3 study of migalastat therapy in ERT-experienced Fabry patients: MWFS by echocardiography", "type": "in vivo, human", "procedure": "This example describes a Phase 3 study of migalastat therapy in ERT-experienced Fabry patients.\nStudy Design. Following eligibility-baseline assessments, 57 patients were randomized to 18 months of migalastat therapy or ERT, followed by followed by 12 months of migalastat therapy. The migalastat dosing regimen was 150 mg of migalastat hydrochloride every other day.\nBaseline MWFS. At baseline, impaired MWFS (<15% for females and <14% for males) was reported in 19 (14 migalastat, 5 ERT) patients."}, "[2]": {"system": "ERT-naïve Fabry patients", "test": "Phase 3 study of migalastat therapy in ERT-naïve Fabry patients: MWFS by echocardiography", "type": "in vivo, human", "conditions": "for Change from baseline in MWFS, mean / Mean change from baseline in MWFS: amenable mutations", "procedure": "This example describes a Phase 3 study of migalastat therapy in ERT-naïve Fabry patients. Patient Enrollment. […] Study Design. […] Echocardiography. LVMi, left posterior wall thickness, diastolic, interventricular septum thickness, diastolic and other parameters were assessed through blinded, centralized evaluation. Baseline MWFS. At baseline, impaired MWFS (<15% for females and <14% for males) was reported in 9 patients."}, "[3]": {"system": "ERT-naïve Fabry patients", "test": "Phase 3 study in ERT-naïve Fabry patients: safety analysis and adverse events", "quoted_text": "(§1) Study Design. Following eligibility-baseline assessments (2 months), patients were randomized to Stage 1—6 months of double-blind administration of 150 mg migalastat hydrochloride or placebo every other day. All patients completing Stage 1 were eligible to receive open-label migalastat in Stage 2 (months 6-12) and for an additional year (months 13-24) thereafter. The primary objective was to compare the effect of migalastat to placebo on kidney GL-3 as assessed by histological scoring of the number of inclusions in interstitial capillaries after 6 months of treatment. The secondary objectives of Stage 1 were to compare the effect of migalastat to placebo on urine GL-3 levels, on renal function, 24-hours urinary protein, and on safety and tolerability. The tertiary objectives were cardiac function, patient-reported outcomes, exploratory kidney analyses, and white blood cell α-Gal A activity. Study completers were eligible to enroll in the open-label extension study for up to 5 years.\n(§2) Safety Analysis and Adverse Events. Randomized patients receiving ≥1 dose were included in the safety analysis, which comprised vital signs, physical exams, electrocardiograms, clinical labs, and adverse events."}, "[4]": {"target": "T1, wild-type α-Gal A and specific mutant forms of α-Gal A (Homo sapiens, UniProt P06280)", "T1 sequence (P06280 32-429)": "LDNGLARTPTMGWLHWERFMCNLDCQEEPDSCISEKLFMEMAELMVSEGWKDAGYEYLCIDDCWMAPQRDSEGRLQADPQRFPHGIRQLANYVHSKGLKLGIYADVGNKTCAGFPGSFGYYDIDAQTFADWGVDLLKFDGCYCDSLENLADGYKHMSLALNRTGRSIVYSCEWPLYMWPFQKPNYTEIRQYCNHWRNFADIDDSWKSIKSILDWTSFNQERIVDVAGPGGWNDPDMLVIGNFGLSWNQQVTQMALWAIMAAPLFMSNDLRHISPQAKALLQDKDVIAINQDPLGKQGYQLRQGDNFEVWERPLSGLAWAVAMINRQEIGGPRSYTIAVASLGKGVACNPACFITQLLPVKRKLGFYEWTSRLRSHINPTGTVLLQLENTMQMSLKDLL", "conditions": "selective and reversible binding; cited from earlier work"}, "[5]": {"system": "ERT-naïve Fabry patients", "conditions": "human, in vivo", "quoted_text": "as §1, §2"}, "[6]": {"conditions": "patients with LVH at baseline, Month 48"}, "[7]": {"conditions": "open-label-extension (months 12-24), 6/57 patients"}}}
{"molecule": "OC[C@H]1NC[C@H](O)[C@@H](O)[C@H]1O", "note": "[migalastat, (2R,3S,4R,5S)-2-(hydroxymethyl) piperdine-3,4,5-triol]", "values": [{"measurement": "Effect on MWFS (in words)", "setting": "[1]; ERT-experienced patients with impaired MWFS at baseline", "result": "stabilized MWFS"}, {"measurement": "Mean change from baseline in MWFS", "setting": "[1]; patients with impaired MWFS at baseline, LOCF, over 30 months of migalastat therapy, n=14", "result": "−0.2", "unit": "%"}, {"measurement": "Effect on MWFS (in words)", "setting": "[2]; ERT-naïve patients with impaired MWFS at baseline", "result": "increased MWFS"}, {"measurement": "Change from baseline in MWFS, mean", "setting": "[2]; patients with LVH at baseline, LOCF, over 48 months", "result": 1.0, "unit": "%"}, {"measurement": "Change from baseline in MWFS, mean", "setting": "[2]; patients with LVH at baseline, Month 12", "result": 0.2, "unit": "%"}, {"measurement": "Change from baseline in MWFS, mean", "setting": "[2]; patients with LVH at baseline, Month 24", "result": 0.9, "unit": "%"}, {"measurement": "Change from baseline in MWFS, mean", "setting": "[2]; patients with LVH at baseline, Month 36", "result": 0.7, "unit": "%"}, {"measurement": "Change from baseline in MWFS, mean", "setting": "[2]; [6]", "result": 0.6, "unit": "%"}, {"measurement": "Normalization of MWFS, patients n/N (%)", "setting": "[2]; [6]", "result": 0}, {"measurement": "Mean change from baseline in MWFS", "setting": "[2]; patients with impaired MWFS at baseline, LOCF, over 48 months", "result": 1.9, "unit": "%"}, {"measurement": "Mean change from baseline in MWFS", "setting": "[2]; patients with impaired MWFS at baseline, LOCF, over 48 months, listed as Migalastat", "result": 1.9, "unit": "%"}, {"measurement": "Mean change from baseline in MWFS", "setting": "[2]; patients with impaired MWFS at baseline, Month 12, 150 mg migalastat HCl QOD", "result": 0.1, "unit": "%"}, {"measurement": "Mean change from baseline in MWFS", "setting": "[2]; patients with impaired MWFS at baseline, Month 24", "result": 1.4, "unit": "%"}, {"measurement": "Mean change from baseline in MWFS", "setting": "[2]; patients with impaired MWFS at baseline, Month 36", "result": 1.4, "unit": "%"}, {"measurement": "Mean change from baseline in MWFS", "setting": "[2]; patients with impaired MWFS at baseline, Month 48", "result": 2.4, "unit": "%"}, {"measurement": "Normalization of MWFS, patients n/N (%)", "setting": "[2]; patients with impaired MWFS at baseline, Month 12", "result": 0}, {"measurement": "Patients who experienced serious adverse events", "setting": "[3]; Stage 1, migalastat group", "result": 2, "unit": "patients"}, {"measurement": "Patients who experienced serious adverse events", "setting": "[3]; Stage 2", "result": 5, "unit": "patients"}, {"measurement": "Adverse event frequency: procedural pain (related to kidney biopsies)", "setting": "[3]; Stage 2 (months 6-12, open-label), 7/63 patients", "result": 11, "unit": "%"}, {"measurement": "Adverse event frequency: headache", "setting": "[3]; Stage 2 (months 6-12, open-label), 9/63 patients", "result": 14, "unit": "%"}, {"measurement": "Progression to end-stage renal disease, cardiac death, stroke", "setting": "[3]; as defined in Banikazemi et al.", "result": "no progression to end-stage renal disease, no cardiac death and no stroke"}, {"measurement": "Patients who discontinued migalastat due to serious adverse events", "setting": "[3]; both deemed unrelated to migalastat", "result": "Two"}, {"measurement": "Serious adverse events assessed as possibly related to migalastat by the investigator", "setting": "[3]; fatigue and paresthesia, same patient, months 12-24, resolved", "result": "Two"}, {"measurement": "Adverse events leading to migalastat discontinuation", "setting": "[3]; human, in vivo", "result": "No adverse events led to migalastat discontinuation"}, {"measurement": "Severity of most adverse events", "setting": "[3]; human, in vivo", "result": "mild or moderate in severity"}, {"measurement": "Vital sign, physical findings, laboratory and ECG parameters", "setting": "[3]; human, in vivo", "result": "did not reveal any clinically relevant effect"}, {"measurement": "Transient ischemic attack", "setting": "[3]; judged unrelated to migalastat", "result": "single case"}, {"measurement": "Patients who experienced serious adverse events", "setting": "[3]; open-label-extension", "result": 11, "unit": "patients"}, {"measurement": "Adverse event frequency: bronchitis", "setting": "[3]; [7]", "result": 11, "unit": "%"}, {"measurement": "Adverse event frequency: headache", "setting": "[3]; [7]", "result": 11, "unit": "%"}, {"measurement": "Adverse event frequency: proteinuria (treatment-emergent)", "setting": "[3]; open-label-extension (months 12-24), 9/57 patients", "result": 16, "unit": "%"}, {"measurement": "Patients in whom 24-hour urine protein remained stable during migalastat treatment", "setting": "[3]; patients with baseline proteinuria <300 mg/24-h", "result": "23/28"}, {"measurement": "Binding to the active site of α-Gal A (in words)", "setting": "[4]", "result": "high affinity"}, {"measurement": "Deaths", "setting": "[5]", "result": "No deaths were reported"}]}
